In US12064445B2, “Cytarabine conjugates for cancer therapy” (Biosight Ltd., priority 2015, dated 2024):
Like-named read-outs stand apart in the source and are kept apart here.

Key:
[1] = system: HepG2 (Human hepatocellular carcinoma); conditions: Grove et al., Cancer Res. 1995, read-out: Cytarabine in literature (IC50); cited from earlier work
Molt-4 cells = assay: Human leukemia hollow fiber model transplanted in nude mice (Molt-4); type: in vivo; conditions: 1.5 mg/mouse/day, 7 consecutive days
Description: (§1) Next, the efficacy of Astarabine® in vivo was studied on a human leukemia (Molt-4 and CCRF-CEM cells) hollow fiber model transplanted in nude mice. Astarabine® was injected at doses of 6.25 mg/mouse/day and 25 mg/mouse/day intraperitoneally (IP), daily, for 7 consecutive days; cytarabine was injected at a dose of 1.5 mg/mouse/day. Leukemia cell growth was measured using the MTT assay as described in Example 1 herein above.

[2] = system: CCRF-CEM (Human acute lymphoblastic leukemia T lympoblastoid line); conditions: Manfredini et al., Bioorg. Med. Chem. 2000, read-out: Cytarabine in literature (IC50); cited from earlier work
CCRF-CEM cells = assay: Human leukemia hollow fiber model transplanted in nude mice (CCRF-CEM); type: in vivo; conditions: 1.5 mg/mouse/day, 7 consecutive days
Description: as §1

[3] = system: HL-60 (Human promyelocytic leukemia); conditions: Qin et al., Clin. Cancer Res. 2007, read-out: Cytarabine in literature (IC50); cited from earlier work
[4] = system: Molt-4 (Human acute lymphoblastic leukemia); conditions: Ogbomo et al., Neoplasia 2008, read-out: Cytarabine in literature (IC50); cited from earlier work
[5] = system: CCRF-SB (Human acute lymphoblastic leukemia); conditions: Manfredini et al., Bioorg. Med. Chem. 2000, read-out: Cytarabine in literature (IC50); cited from earlier work
[6] = system: L1210 (Mouse DBA/2 lymphocytic leukemia); assay: MTT assay, IC50 in tumor cell lines; type: cell-based; conditions: L1210, 72 hr
Description: (§2) The effect of Astarabine® on different cell lines was evaluated. Briefly, various cell lines were obtained from ATCC or ECACC. Hematological cells were grown in RPMI medium containing 10-20% FBS and 1% glutamine. Solid tumor cells were grown in DMEM medium containing 10-20% FBS and 1% glutamine. Cells were seeded into 96-well plates, 50,000 cells/ml, 0.2 ml per well. Test substances were diluted in saline or PBS and added in final concentrations of 0.1 nM to 10 μM, in a volume of 20 μl. The study was conducted in triplicates, PBS was used as control. Plates were incubated for 72 hr at 37° C., 5% CO2. At the end of the exposure period, a MTT assay using the MTT reagent [3-(4,5-dimethylthiazol-2-yl)-2,5-diphenyltetrazolium bromide] was performed. MTT was added to each well at a concentration of 5 mg/ml in a volume of 0.02 ml. Plates were incubated at 37° C. for 3 h. The plates were centrifuged at 3500 rpm for 5 minutes and the supernatant was aspired. The pellets which contained MTT crystals were each dissolved in 0.2 ml DMSO. Absorbance was determined using ELISA reader at a wavelength of 570 nm.

[7] = system: SU DHL-1 (Human large cell lymphoma); assay: MTT assay, IC50 in tumor cell lines; type: cell-based; conditions: SU DHL-1, 72 hr
Description: as §2

[8] = system: CCRF-SB (Human acute lymphoblastic leukemia); assay: MTT assay, IC50 in tumor cell lines; type: cell-based; conditions: 72 hr
Description: as §2

[9] = system: HL-60 (Human promyelocytic leukemia); assay: MTT assay, IC50 in tumor cell lines; type: cell-based; conditions: HL-60, 72 hr
Description: as §2

[10] = system: THP-1 (Human monocytic leukemia); assay: MTT assay, IC50 in tumor cell lines; type: cell-based; conditions: THP-1, 72 hr
Description: as §2

[11] = system: MEG 01 (Human chronic myelogenous leukemia); assay: MTT assay, IC50 in tumor cell lines; type: cell-based; conditions: MEG 01, 72 hr
Description: as §2

[12] = system: RS 4:11 (Human acute lymphoblastic leukemia); assay: MTT assay, IC50 in tumor cell lines; type: cell-based; conditions: RS4-11, RS 4:11, 72 hr
Description: as §2

[13] = system: A2780 (Human ovarian carcinoma); assay: MTT assay, IC50 in tumor cell lines; type: cell-based; conditions: A2780, 72 hr
Description: as §2

[14] = system: CCRF-CEM (Human acute lymphoblastic leukemia T lympoblastoid line); assay: MTT assay, IC50 in tumor cell lines; type: cell-based; conditions: 72 hr
Description: as §2

[15] = system: P388.D1 (Mouse lymphoid macrophage); assay: MTT assay, IC50 in tumor cell lines; type: cell-based; conditions: P388D1, P388.D1, 72 hr
Description: as §2

[16] = system: K562 (Human chronic myelogenous leukemia); assay: MTT assay, IC50 in tumor cell lines; type: cell-based; conditions: K562, 72 hr
Description: as §2

[17] = system: Molt-4 (Human acute lymphoblastic leukemia); assay: MTT assay, IC50 in tumor cell lines; type: cell-based; conditions: Molt-4, 72 hr
Description: as §2

[18] = system: HepG2 (Human hepatocellular carcinoma); assay: MTT assay, IC50 in tumor cell lines; type: cell-based; conditions: HepG2, 72 hr
Description: as §2

[19] = system: SU DHL-5 (Human B-cell non Hodgkin's lymphoma); assay: MTT assay, IC50 in tumor cell lines; type: cell-based; conditions: SU DHL-5, 72 hr
Description: as §2

[20] = system: NCIH727 (Human lung non small cell carcinoma); assay: MTT assay, IC50 in tumor cell lines; type: cell-based; conditions: NCI-H727, NCIH727, 72 hr
Description: as §2

[21] = system: L1210 (Mouse DBA/2 lymphocytic leukemia); conditions: Breistol et al., Cancer Res. 1999, read-out: Cytarabine in literature (IC50); cited from earlier work
RPMI8226 (Human myeloma) = assay: MTT assay, IC50 in tumor cell lines; type: cell-based; conditions: RPMI-8226, RPMI8226, 72 hr
Description: as §2, with “Test substances were diluted in saline or PBS and added in final concentrations of 0.1 nM to 10 μM, in a volume of 20 μl.” left out

[22] = system: A2780 (Human ovarian carcinoma); conditions: Ruiz Van Haperen, Cancer Res. 1994, read-out: Cytarabine in literature (IC50); cited from earlier work

Structure (SMILES): Nc1ccn([C@@H]2O[C@H](CO)[C@@H](O)[C@@H]2O)c(=O)n1 [cytarabine, cytosine arabinoside]
- IC50 [1]: 185 ± 240 nM
- Inhibition of growth of Molt-4 cells (Molt-4 cells): 81.1%
- IC50 [2]: 30 nM
- Inhibition of growth of CCRF-CEM cells (CCRF-CEM cells): 73.3%
- IC50 [3]: 37 ± 6.1 nM
- IC50 [4]: 29 ± 1.8 nM
- IC50 [5]: 4200 nM
- IC50 [6]: 12.2 to 16.4 nM
- IC50 [7]: 124 to 524 nM
- IC50 [8]: 1900 to 3100 nM
- IC50 [9]: 49.6 to 165 nM
- IC50 [10]: 2300 to 5500 nM
- IC50 [11]: 1200 to 5600 nM
- IC50 [12]: 26.4 nM
- IC50 [13]: 72 to 114 nM
- IC50 [14]: 3.1 to 25.2 nM
- IC50 [15]: 600 to 900 nM
- IC50 [16]: 46.1 to 381 nM
- IC50 [17]: 1.1 to 12.3 nM
- IC50 [18]: 980 to 1160 nM
- IC50 [19]: 323 nM
- IC50 [20]: 590 to 770 nM
- IC50 [21]: 40 ± 9 nM
- IC50 (RPMI8226 (Human myeloma)): 9700 to 63000 nM
- IC50 [22]: 14 ± 4 nM
